Target: IRE-1α (Homo sapiens (Human), UniProt O75460)
Test: Cellular EC50: endogenous XBP-1 splicing in myeloma cells (MM.1s, DTT stress, RT-PCR)
Format: cell-based
Conditions: average cellular EC50, XBP-1 splicing in myeloma cells
Method: Human myeloma MM.1s cells are incubated with a compound for 1.25 hours before stressing the cells with 2 mM dithiothreitol (DTT). After an additional 45 minutes (2 hours total) with compound and DTT, the cells are harvested with TRIZOL® (a mono-phasic solution of phenol and guanidine isothiocyanate), and total RNA is prepared as directed by the manufacturer (Invitrogen). Human XBP-1 is amplified by RT-PCR with the following primers, which flank the 26 base unconventional intron excised by IRE-1α:
RT-PCR of unstressed (U) cells then generates the upper band. When cells are stressed (S) with the endoplasmic reticulum (ER) stressing agent DTT, IRE-1α is activated due to accumulating unfolded protein and the resulting RT-PCR product is 26 base pairs shorter.
Compounds which pass specificity assays are assayed for cellular EC50 using endogenous XBP-1 splicing in myeloma cells. XBP-1 is regulated through the excision of a 26 nucleotide intron from the XBP-1 mRNA by the highly specific endoribonuclease activity of IRE-1α. […] This splicing event is used to measure IRE-1α activity on XBP-1 mRNA in cells and tissues.
Briefly, compounds are incubated in the presence or absence of an ER stress agent (e.g., DTT), and the ratio of XBP-1u (unspliced) to XBP-1s (spliced) is quantified by RT-PCR. The ED50 is determined as the 50% XBP-1s to total XPB-1 levels.

IRE-1α, sequence (O75460 19-977): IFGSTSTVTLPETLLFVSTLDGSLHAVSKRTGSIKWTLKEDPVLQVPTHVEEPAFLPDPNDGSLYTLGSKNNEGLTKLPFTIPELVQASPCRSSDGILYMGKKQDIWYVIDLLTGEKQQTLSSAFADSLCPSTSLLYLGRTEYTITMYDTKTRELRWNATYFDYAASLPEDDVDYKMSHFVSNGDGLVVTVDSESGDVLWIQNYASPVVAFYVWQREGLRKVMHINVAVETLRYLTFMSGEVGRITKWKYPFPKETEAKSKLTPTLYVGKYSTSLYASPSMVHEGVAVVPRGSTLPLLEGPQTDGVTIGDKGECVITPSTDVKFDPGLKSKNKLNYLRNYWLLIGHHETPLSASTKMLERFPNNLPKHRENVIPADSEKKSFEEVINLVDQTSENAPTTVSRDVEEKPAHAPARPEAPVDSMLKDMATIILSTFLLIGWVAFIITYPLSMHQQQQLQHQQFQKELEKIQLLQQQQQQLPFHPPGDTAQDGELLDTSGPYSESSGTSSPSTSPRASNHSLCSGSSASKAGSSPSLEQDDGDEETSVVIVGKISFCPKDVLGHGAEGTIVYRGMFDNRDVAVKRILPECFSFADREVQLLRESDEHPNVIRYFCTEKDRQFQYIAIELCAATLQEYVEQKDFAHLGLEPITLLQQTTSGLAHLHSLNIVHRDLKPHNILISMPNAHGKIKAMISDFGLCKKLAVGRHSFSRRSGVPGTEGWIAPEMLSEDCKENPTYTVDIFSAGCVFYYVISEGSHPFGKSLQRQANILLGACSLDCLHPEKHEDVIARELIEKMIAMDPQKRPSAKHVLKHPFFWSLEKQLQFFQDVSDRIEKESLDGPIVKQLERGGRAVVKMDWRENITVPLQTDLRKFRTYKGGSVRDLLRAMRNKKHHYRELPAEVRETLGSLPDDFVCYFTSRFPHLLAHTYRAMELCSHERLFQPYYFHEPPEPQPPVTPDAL

COCCOc1cc(O)c(C=O)c2oc(=O)c(CCC(=O)NCCN3CCOCC3)c(C)c12 [Example 156] gave an EC50 greater than 10 µM.
Compound COCCOc1cc(O)c(C=O)c2oc(=O)c(CCC(=O)NCCN(C)C)c(C)c12 [Example 157] has an EC50 greater than 10 µM.
CCOC(=O)Cc1c(C)c2c(OCCOC)cc(O)c(C=O)c2oc1=O [Example 158] gave an EC50 of less than 10 µM.
COCCNC(=O)Cc1c(C)c2c(OCCOC)cc(O)c(C=O)c2oc1=O [Example 159] was tested, and the EC50 was less than 10 µM.
COCCOc1cc(O)c(C=O)c2oc(=O)c(CC(=O)N3CCOCC3)c(C)c12 [Example 160] was tested, and the EC50 was less than 10 µM.
Work on COCCOc1cc(O)c(C=O)c2oc(=O)c(CC(=O)N3CCN(C)CC3)c(C)c12 [Example 161] yielded an EC50 of less than 10 µM.
Compound CCNC(=O)Cc1c(C)c2c(OCCOC)cc(O)c(C=O)c2oc1=O [Example 162] has an EC50 of less than 10 µM.
Work on COCCOc1cc(O)c(C=O)c2oc(=O)c(CC(=O)NCCN3CCOCC3)c(C)c12 [Example 163] yielded an EC50 of less than 10 µM.
COCCOc1cc(O)c(C=O)c2oc(=O)c(CC(=O)NCCN(C)C)c(C)c12 [Example 164] was tested, and the EC50 was greater than 10 µM.
COCCOc1cc(O)c(C=O)c2oc(=O)c(C)c(C)c12 [Example 165] gave an EC50 of less than 10 µM.
Compound COCCNC(=O)Cc1c(C)c2cc(OC)c(O)c(C=O)c2oc1=O [Example 166] has an EC50 of less than 10 µM.
For COc1cc2c(C)c(CC(=O)N3CCN(C)CC3)c(=O)oc2c(C=O)c1O [Example 168], the EC50 was less than 10 µM.
In the case of CCNC(=O)Cc1c(C)c2cc(OC)c(O)c(C=O)c2oc1=O [Example 169], the EC50 is reported as less than 10 µM.
Work on COc1cc2c(C)c(CC(=O)NCCN(C)C)c(=O)oc2c(C=O)c1O [Example 170] yielded an EC50 of less than 10 µM.
COCCNC(=O)CCc1c(C)c2cc(OC)c(O)c(C=O)c2oc1=O [Example 171] showed an EC50 of less than 10 µM.
COc1cc2c(C)c(CCC(=O)N3CCOCC3)c(=O)oc2c(C=O)c1O [Example 172] gave an EC50 of less than 10 µM.
COc1cc2c(C)c(CCC(=O)N3CCN(C)CC3)c(=O)oc2c(C=O)c1O [Example 173] showed an EC50 of less than 10 µM.
For CCNC(=O)CCc1c(C)c2cc(OC)c(O)c(C=O)c2oc1=O [Example 174], the EC50 was less than 10 µM.
COc1cc2c(C)c(CCC(=O)NCCN(C)C)c(=O)oc2c(C=O)c1O [Example 175] showed an EC50 greater than 10 µM.
For COCCNC(=O)Cc1c(C)c2c(OC)cc(O)c(C=O)c2oc1=O [Example 176], the EC50 was less than 10 µM.
Compound COc1cc(O)c(C=O)c2oc(=O)c(CC(=O)N3CCOCC3)c(C)c12 [Example 177] has an EC50 of less than 10 µM.
For COc1cc(O)c(C=O)c2oc(=O)c(CC(=O)N3CCN(C)CC3)c(C)c12 [Example 178], the EC50 was less than 10 µM.
COc1cc(O)c(C=O)c2oc(=O)c(CC(=O)NCCN3CCOCC3)c(C)c12 [Example 179] gave an EC50 of less than 10 µM.
Compound COc1cc(O)c(C=O)c2oc(=O)c(CC(=O)NCCN(C)C)c(C)c12 [Example 180] has an EC50 of less than 10 µM.
COCCOc1cc2c(C)c(CCC(=O)N3CCOCC3)c(=O)oc2c(C=O)c1O [Example 181] gave an EC50 of less than 10 µM.
Work on COCCOc1cc2c(C)c(CCC(=O)N3CCN(C)CC3)c(=O)oc2c(C=O)c1O [Example 182] yielded an EC50 of less than 10 µM.
CCNC(=O)CCc1c(C)c2cc(OCCOC)c(O)c(C=O)c2oc1=O [Example 183] gave an EC50 of less than 10 µM.
In the case of COCCNC(=O)CCc1c(C)c2cc(OCCOC)c(O)c(C=O)c2oc1=O [Example 184], the EC50 is reported as less than 10 µM.
COCCOc1cc2c(C)c(CCC(=O)NCCN(C)C)c(=O)oc2c(C=O)c1O [Example 185] gave an EC50 greater than 10 µM.
COCCOc1cc2c(C)c(CCC(=O)NCCN3CCOCC3)c(=O)oc2c(C=O)c1O [Example 186] gave an EC50 greater than 10 µM.
With COCCOc1cc2c(C)c(CC(=O)NCCN3CCOCC3)c(=O)oc2c(C=O)c1O [Example 187] the EC50 was less than 10 µM.
Work on COCCOc1cc2c(C)c(CC(=O)N3CCOCC3)c(=O)oc2c(C=O)c1O [Example 188] yielded an EC50 of less than 10 µM.
For COCCOc1cc2c(C)c(CC(=O)N3CCN(C)CC3)c(=O)oc2c(C=O)c1O [Example 189], the EC50 was less than 10 µM.
In the case of COCCNC(=O)Cc1c(C)c2cc(OCCOC)c(O)c(C=O)c2oc1=O [Example 190], the EC50 is reported as less than 10 µM.
Compound CCNC(=O)Cc1c(C)c2cc(OCCOC)c(O)c(C=O)c2oc1=O [Example 191] has an EC50 of less than 10 µM.
COc1cc(O)c(C=O)c2oc(=O)c(CCC(=O)N3CCOCC3)c(C)c12 [Example 192] showed an EC50 of less than 10 µM.
With COc1cc(O)c(C=O)c2oc(=O)c(CCC(=O)N3CCN(C)CC3)c(C)c12 [Example 193] the EC50 was less than 10 µM.
For COCCNC(=O)CCc1c(C)c2c(OC)cc(O)c(C=O)c2oc1=O [Example 194], the EC50 was less than 10 µM.
COc1cc(O)c(C=O)c2oc(=O)c(CCC(=O)NCCN(C)C)c(C)c12 [Example 195] gave an EC50 of less than 10 µM.
COc1cc(O)c(C=O)c2oc(=O)c(CCC(=O)NCCN3CCOCC3)c(C)c12 [Example 196] gave an EC50 of less than 10 µM.
For COc1cc2c(C(F)(F)F)cc(=O)oc2c(C=O)c1O [Example 197], the EC50 was less than 10 µM.
With COc1cc2c3c(c(=O)oc2c(C=O)c1O)CCC3 [Example 198] the EC50 was less than 10 µM.
With COc1cc2c(C)c(C)c(=O)oc2c(C=O)c1O [Example 199] the EC50 was greater than 10 µM.
COc1cc2c(C)c(C(C)C)c(=O)oc2c(C=O)c1O [Example 200] was tested, and the EC50 was greater than 10 µM.
Compound Cc1c(CCC(=O)NCCN2CCOCC2)c(=O)oc2c(C=O)c(O)ccc12 [Example 201] has an EC50 of less than 10 µM.
COCCNC(=O)CCc1c(C)c2cc(OCCN3CCOCC3)c(O)c(C=O)c2oc1=O [Example 202] showed an EC50 greater than 10 µM.
In the case of Cc1c(C)c2cc(OCCN3CCOCC3)c(O)c(C=O)c2oc1=O [Example 203], the EC50 is reported as less than 10 µM.
In the case of CCNC(=O)CCc1c(C)c2cc(OCCN3CCOCC3)c(O)c(C=O)c2oc1=O [Example 204], the EC50 is reported as greater than 10 µM.
Work on COCCNC(=O)Cc1c(C)c2cc(OCCN3CCOCC3)c(O)c(C=O)c2oc1=O [Example 205] yielded an EC50 of 10 µM.
Cc1c(CC(=O)N2CCOCC2)c(=O)oc2c(C=O)c(O)c(OCCN3CCOCC3)cc12 [Example 206] was tested, and the EC50 was 10 µM.
COc1cc2c(=O)c(CC(=O)N3CCOCC3)c(C)oc2c(C=O)c1O [Example 207] gave an EC50 greater than 10 µM.
Compound COc1cc2c(=O)c(CC(=O)N3CCN(C)CC3)c(C)oc2c(C=O)c1O [Example 208] has an EC50 greater than 10 µM.
CCNC(=O)Cc1c(C)oc2c(C=O)c(O)c(OC)cc2c1=O [Example 209] was tested, and the EC50 was less than 10 µM.
COc1cc2c(=O)c(CC(=O)NCCN3CCOCC3)c(C)oc2c(C=O)c1O [Example 210] gave an EC50 greater than 10 µM.
COc1cc2c(=O)c(CC(=O)NCCN(C)C)c(C)oc2c(C=O)c1O [Example 211] showed an EC50 greater than 10 µM.
In the case of COCCNC(=O)CCc1c(C)oc2c(C=O)c(O)c(OC)cc2c1=O [Example 212], the EC50 is reported as greater than 10 µM.
Work on CCNC(=O)CCc1c(C)oc2c(C=O)c(O)c(OC)cc2c1=O [Example 213] yielded an EC50 greater than 10 µM.
For COc1cc2c(=O)c(CCC(=O)NCCN(C)C)c(C)oc2c(C=O)c1O [Example 214], the EC50 was greater than 10 µM.
COCCNC(=O)CCc1c(C)oc2c(C=O)c(O)ccc2c1=O [Example 215] was tested, and the EC50 was less than 10 µM.
With Cc1oc2c(C=O)c(O)ccc2c(=O)c1CCC(=O)N1CCOCC1 [Example 216] the EC50 was less than 10 µM.
CCNC(=O)CCc1c(C)oc2c(C=O)c(O)ccc2c1=O [Example 217] was tested, and the EC50 was less than 10 µM.
Cc1oc2c(C=O)c(O)ccc2c(=O)c1CCC(=O)NCCN(C)C [Example 218] gave an EC50 greater than 10 µM.
Work on Cc1oc2c(C=O)c(O)ccc2c(=O)c1CCC(=O)NCCN1CCOCC1 [Example 219] yielded an EC50 greater than 10 µM.
COCCNC(=O)Cc1c(C)oc2c(C=O)c(O)ccc2c1=O [Example 220] was tested, and the EC50 was less than 10 µM.
Cc1oc2c(C=O)c(O)ccc2c(=O)c1CC(=O)N1CCOCC1 [Example 221] showed an EC50 greater than 10 µM.
For Cc1oc2c(C=O)c(O)ccc2c(=O)c1CC(=O)N1CCN(C)CC1 [Example 222], the EC50 was less than 10 µM.
For CCNC(=O)Cc1c(C)oc2c(C=O)c(O)ccc2c1=O [Example 223], the EC50 was less than 10 µM.
Compound Cc1oc2c(C=O)c(O)ccc2c(=O)c1CC(=O)NCCN(C)C [Example 224] has an EC50 greater than 10 µM.
Compound Cc1oc2c(C=O)c(O)ccc2c(=O)c1CC(=O)NCCN1CCOCC1 [Example 225] has an EC50 greater than 10 µM.
Compound COCCNC(=O)Cc1c(C)oc2c(C=O)c(O)cc(OC)c2c1=O [Example 226] has an EC50 of less than 10 µM.
For COc1cc(O)c(C=O)c2oc(C)c(CC(=O)N3CCOCC3)c(=O)c12 [Example 227], the EC50 was less than 10 µM.
Compound CCNC(=O)Cc1c(C)oc2c(C=O)c(O)cc(OC)c2c1=O [Example 228] has an EC50 of less than 10 µM.
Compound Cn1c(CCC(=O)N2CCOCC2)nc2ccc(O)c(C=O)c21 [Example 229] has an EC50 greater than 10 µM.
Work on CCNC(=O)CCc1nc2c(C=O)c(O)ccc2n1C [Example 230] yielded an EC50 greater than 10 µM.
Work on COCCNC(=O)CCc1nc2c(C=O)c(O)ccc2[nH]1 [Example 231] yielded an EC50 greater than 10 µM.
For O=Cc1c(O)ccc2[nH]c(CCC(=O)N3CCOCC3)nc12 [Example 232], the EC50 was greater than 10 µM.
Compound CN1CCC(NC(=O)CCc2nc3c(C=O)c(O)ccc3[nH]2)CC1 [Example 233] has an EC50 of less than 10 µM.
In the case of CCNC(=O)CCc1nc2c(C=O)c(O)ccc2[nH]1 [Example 234], the EC50 is reported as greater than 10 µM.
Compound O=Cc1c(O)ccc2nc(CCC(=O)NCCN3CCOCC3)[nH]c12 [Example 235] has an EC50 greater than 10 µM.
With CN(C)CCNC(=O)CCc1nc2c(C=O)c(O)ccc2[nH]1 [Example 236] the EC50 was greater than 10 µM.
Work on COCCNC(=O)CCc1nc2ccc(O)c(C=O)c2n1C [Example 237] yielded an EC50 greater than 10 µM.
Cn1c(CCC(=O)NCCN2CCOCC2)nc2ccc(O)c(C=O)c21 [Example 238] was tested, and the EC50 was greater than 10 µM.
Compound CN1CCN(C(=O)CCc2nc3ccc(O)c(C=O)c3n2C)CC1 [Example 239] has an EC50 greater than 10 µM.

Reference: US9693992B2 (MannKind Corporation, priority 2010, dated 2017)
